Molecules are shown by their SMILES.

This is an account of results in patent US11376216B2, “Periodontal disease therapy” (New York University, priority 2018, dated 2022).

The test system of data set [1] is pre-osteoclastic cells. The data set can be described thus: Viability/proliferation of osteoclast progenitors (cytotoxicity of 4C). The data set is classed as cell-based, mouse. The settings on record: at up to 100 μM; without RANKL and M-CSF. As for the experimental part: (§1) (A) “4C” structure with NMR in dimethyl sulfoxide (DMSO). (B) Purity by high-performance liquid chromatography (HPLC). Ficoll processed non-adherent bone marrow cells were seeded at 20,000 per well in 96-well-plate and stimulated with the indicated concentration of cytokines (macrophage-colony stimulating factor (M-CSF), 30 ng ml^−1 from day 1; receptor activator of nuclear factor kappa-B ligand (RANKL), 50 ng ml^−1 from day 3); fresh cytokines were added every other day. (C) No cytotoxicity of 4C to the proliferation of osteoclast (OC) progenitors (without RANKL and M-CSF). (D-E) Representative TRAP staining images and analysis of WT mouse bone marrow in vitro OC cultures treated with 1 mM succinate or control in the presence of SucnR1 antagonist 4C at indicated concentrations. **p<0.01, *** p<0.001 according to Bonferroni post hoc test after ANOVA, N=5.
(§2) The structure of the synthetic antagonist of SucnR1 4C was authenticated using nuclear magnetic resonance spectroscopy (FIG. 2A) with a purity of 98.002% according to high-performance liquid chromatography (FIG. 2B).

For data set [2], the system named is osteoclast culture derived from ficoll processed mouse bone marrow cells. Description: Succinate-stimulated osteoclastogenesis in bone marrow osteoclast cultures (TRAP staining). It counts as cell-based. The settings on record: 1 mM succinate, in vitro. How it is done:
as §1, §2

The target of data set [3] is T1, Human Succinate Receptor 1 (Homo sapiens, UniProt Q9BXA5).
T1 sequence (Q9BXA5 1-334): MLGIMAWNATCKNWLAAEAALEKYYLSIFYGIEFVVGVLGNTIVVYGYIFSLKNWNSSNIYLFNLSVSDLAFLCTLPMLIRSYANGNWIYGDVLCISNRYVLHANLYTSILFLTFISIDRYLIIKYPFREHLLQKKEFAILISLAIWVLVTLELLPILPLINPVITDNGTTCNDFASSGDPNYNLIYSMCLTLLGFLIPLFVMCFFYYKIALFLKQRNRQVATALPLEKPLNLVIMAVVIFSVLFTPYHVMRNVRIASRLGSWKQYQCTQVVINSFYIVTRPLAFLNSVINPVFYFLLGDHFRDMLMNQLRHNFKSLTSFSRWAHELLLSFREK
Description: Human Succinate Receptor 1 AequoScreen cell line calcium signal upon succinate activation. It counts as cell-based. The settings on record: succinate 500 μM, read-out: inhibition of SucnR1 activation by succinate. As for the experimental part:
Human Succinate Receptor 1 AequoScreen® Cell Line (PerkinElmer ES-744-A) was used to assess the activity of SUCNR1 upon activation by ligand (succinate 500 μM) in the presence and absence of antagonists. Cells were seeded at 5,000 cells/well for 24 hour before the calcium dye was added. Forty-five minutes later, the antagonists were added at indicated concentrations. Fifteen minutes later, the ligand was added and the fluorescent signal (EX/EM: 485/525) was measured immediately on a plate reader. A) The efficacy of 3 newly synthesized compounds in comparison with 4C at the same concentration. (*p<0.05, **p<0.001 by t-test in comparison to ligand alone post One-Way ANOVA) B) Dose effects of the compound 7a at various concentrations. (*p<0.05, **p<0.001 in comparison to […] by t-test post One-Way ANOVA).
Structure-activity relationship studies were performed using the compounds depicted in FIG. 7. The structure and purity of the compounds were confirmed via HPLC and NMR. At the same concentration of 4C, these antagonists inhibited the activation of SucnR1 by succinate in vitro (FIG. 8A).

Turning to `C[C@H](NC(=O)Cc1ccc(-c2ccc3cccnc3n2)cc1)c1ccc(-c2ccc(F)c(C(F)(F)F)c2)cc1` [4C], in data set [1], the “inhibitory effect on the viability of pre-osteoclastic cells” value is reported as “no inhibitory effect”. Also, the entries for the “reduction of succinate stimulation of osteoclastogenesis” value in data set [2] (4C at 0.1 μM) and in data set [2] (4C at 10 μM) were “started to reduce the stimulation of succinate” and “completely erase the simulation of osteoclastogenesis by succinate”, respectively.
As usually defined, the inhibition is how much of the control response was suppressed. For the molecule `CNC(=O)Cc1ccc(-c2ccc3cccnc3n2)cc1` [Cpd-7a], in data set [3], the inhibition at 20 µM stood at 50%.
